Test results as given in US20240148744A1 (Celgene Corporation, priority 2021, published 2024).

System: Onchocerca gutturosa adult male worms
Assay: Onchocerca gutturosa in vitro screening model: adult worm motility score and MTT/formazan viability
Format: cell-based
Conditions: read-out: O. gutt Activity class

SMILES: O=S(=O)(Nc1ccc(F)c2cccnc12)c1ccco1 [Compound 64, N-(5-fluoro-quinolin-8-yl)furan-2-sulfonamide]
- IC50: < 200 nM

SMILES: O=S(=O)(Nc1ccc(F)c2cccnc12)c1cn[nH]c1 [Compound 63, N-(5-fluoro-quinolin-8-yl)-1H-pyrazole-4-sulfonamide]
- IC50: 500 to 5000 nM

SMILES: COc1cccc(S(=O)(=O)Nc2cccc3cccnc23)n1 [Compound 224, 6-methoxy-N-(quinolin-8-yl)pyridine-2-sulfonamide]
- IC50: 200 to 500 nM

SMILES: Cn1ccc(S(=O)(=O)Nc2cccc3cccnc23)n1 [Compound 255, 1-methyl-N-(quinolin-8-yl)-1H-pyrazole-3-sulfonamide]
- IC50: 200 to 500 nM

SMILES: Cc1ccc(S(=O)(=O)Nc2ccc(N3CCC(O)(c4ccccc4)CC3)c3cccnc23)cc1 [Compound 95, N-(5-(4-hydroxy-4-phenylpiper-idin-1-yl)-quinolin-8-yl)-4-methyl-benzene-sulfonamide]
- IC50: 500 to 5000 nM

SMILES: Cc1cccnc1S(=O)(=O)Nc1cccc2c(OC(C)C)ccnc12 [Compound 19, N-(4-iso-propoxyquin-olin-8-yl)-3-methylpyr-idine-2-sulfonamide]
- IC50: 500 to 5000 nM

SMILES: O=S(=O)(Nc1cccc2cccnc12)c1ncccc1O [Compound 219, 3-hydroxy-N-(quinolin-8-yl)pyridine-2-sulfonamide]
- IC50: 500 to 5000 nM

SMILES: CCn1cccc1S(=O)(=O)Nc1cccc2cccnc12 [Compound 227, 1-ethyl-N-(quinolin-8-yl)-1H-pyrrole-2-sulfonamide]
- IC50: < 200 nM

SMILES: O=S(=O)(Nc1cccc2cccnc12)c1ccc2ccccc2c1 [Compound 282, N-(quinolin-8-yl)naphthalene-2-sulfonamide]
- IC50: 200 to 500 nM

SMILES: O=S(=O)(Nc1cccc2cccnc12)N1CCCCC1 [Compound 205, N-(quinolin-8-yl)piperidine-1-sulfonamide]
- IC50: 500 to 5000 nM

SMILES: Cn1cc(S(=O)(=O)Nc2ccc(F)c3cccnc23)cn1 [Compound 59, N-(5-fluoro-quinolin-8-yl)-1-meth-yl-1H-pyr-azole-4-sulfonamide]
- IC50: 500 to 5000 nM

SMILES: O=S(=O)(Nc1cccc2cccnc12)c1cccnc1 [Compound 277, N-(quinolin-8-yl)pyridine-3-sulfonamide]
- IC50: 500 to 5000 nM

SMILES: COc1nccnc1S(=O)(=O)Nc1c(Cl)ccc2cccnc12 [Compound 101, N-(7-chloro-quinolin-8-yl)-3-methoxypyr-azine-2-sulfon-amide]
- IC50: 500 to 5000 nM

SMILES: COc1cc(OC)cc(S(=O)(=O)Nc2cc(F)cc3cccnc23)c1 [Compound 128, N-(6-fluoro-quinolin-8-yl)-3,5-dimethoxy-benzenesulfon-amide]
- IC50: < 200 nM

SMILES: O=S(=O)(Nc1cc(-c2ccccc2)cc2cccnc12)c1ccccn1 [Compound 97, N-(6-phenyl-quinolin-8-yl)pyridine-2-sulfonamide]
- IC50: 500 to 5000 nM

SMILES: COc1ccc(NS(=O)(=O)c2ccco2)c2ncccc12 [Compound 60, N-(5-meth-oxyquinolin-8-yl)furan-2-sulfonamide]
- IC50: 500 to 5000 nM

SMILES: Cc1ccc(S(=O)(=O)Nc2cccc3cc(C)cnc23)cc1 [Compound 96, 4-methyl-N-(3-methyl-quinolin-8-yl)benzene-sulfonamide]
- IC50: < 200 nM

SMILES: N#Cc1ccnc(S(=O)(=O)Nc2c(Cl)ccc3cccnc23)c1 [Compound 71, N-(7-chloro-quinolin-8-yl)-4-cyano-pyridine-2-sulfonamide]
- IC50: < 200 nM

SMILES: Cc1cnc(S(=O)(=O)Nc2cccc3cccnc23)nc1 [Compound 198, 5-methyl-N-(quinolin-8-yl)pyrimidine-2-sulfonamide]
- IC50: 200 to 500 nM

SMILES: O=S(=O)(Nc1cc(C2CCCCC2)cc2cccnc12)c1ccccn1 [Compound 131, N-(6-cyclo-hexylquinolin-8-yl)pyridine-2-sulfonamide]
- IC50: 500 to 5000 nM

SMILES: COc1ccc(S(=O)(=O)Nc2cccc3cccnc23)nc1 [Compound 235, 5-methoxy-N-(quinolin-8-yl)pyridine-2-sulfonamide]
- IC50: < 200 nM

SMILES: O=S(=O)(Nc1ccc(N2CCOCC2)c2cccnc12)c1ccco1 [Compound 61, N-(5-morph-olinoquin-olin-8-yl)-furan-2-sulfonamide]
- IC50: 500 to 5000 nM

SMILES: CC(C)n1ccnc1S(=O)(=O)Nc1cccc2c1CN(C1CC1)C2 [Compound 33, N-(2-cyclo-propyliso-indolin-4-yl)-1-isopropyl-1H-imidazole-2-sulfonamide]
- IC50: 200 to 500 nM

SMILES: Cc1cccnc1S(=O)(=O)Nc1cccc2c(F)ccnc12 [Compound 12, N-(4-fluoro-quinolin-8-yl)-3-methylpyr-idine-2-sulfonamide]
- IC50: 200 to 500 nM

SMILES: O=S(=O)(Nc1cccc2cccnc12)c1ccc2ccccc2n1 [Compound 239, N-(quinolin-8-yl)quinoline-2-sulfonamide]
- IC50: < 200 nM

SMILES: Cc1nccnc1S(=O)(=O)Nc1c(Cl)ccc2cccnc12 [Compound 70, N-(7-chloro-quinolin-8-yl)-3-methyl-pyrazine-2-sulfonamide]
- IC50: 500 to 5000 nM

SMILES: O=S(=O)(Nc1cccc2c1NCCC2)c1ncccc1F [Compound 46, 3-fluoro-N-(1,2,3,4-tetra-hydroquin-olin-8-yl)-pyridine-2-sulfonamide]
- IC50: 500 to 5000 nM

SMILES: Cc1nccnc1S(=O)(=O)Nc1cccc2cccnc12 [Compound 210, 3-methyl-N-(quinolin-8-yl)pyrazine-2-sulfonamide]
- IC50: < 200 nM

SMILES: Cc1ccc(S(=O)(=O)Nc2cc(F)c(F)c3cccnc23)cc1 [Compound 136, N-(5,6-difluoroquin-olin-8-yl)-4-methylben-zenesulfon-amide]
- IC50: 200 to 500 nM

SMILES: O=S(=O)(Nc1cccc2cccnc12)c1nccc2ncccc12 [Compound 229, N-(quinolin-8-yl)-1,6-naphthyridine-5-sulfonamide]
- IC50: < 200 nM

SMILES: Cc1cccnc1S(=O)(=O)Nc1cccc2c1N(C)CC2 [Compound 44, 3-methyl-N-(1-methyl-indolin-7-yl)-pyridine-2-sulfonamide]
- IC50: 500 to 5000 nM

SMILES: O=S(=O)(Nc1cccc2cccnc12)c1ccc(-c2ccccc2)cn1 [Compound 244, 5-phenyl-N-(quinolin-8-yl)pyridine-2-sulfonamide]
- IC50: 500 to 5000 nM

SMILES: Cc1cccnc1S(=O)(=O)Nc1cncc2cccnc12 [Compound 194, 3-methyl-N-(1,6-naphthyridin-8-yl)pyridine-2-sulfonamide]
- IC50: 200 to 500 nM

SMILES: O=S(=O)(Nc1cccc2cccnc12)c1ccc(F)cn1 [Compound 247, 5-fluoro-N-(quinolin-8-yl)pyridine-2-sulfonamide]
- IC50: < 200 nM

SMILES: Cc1nc(S(=O)(=O)Nc2cccc3cccnc23)c(C#N)c(C)c1Cl [Compound 175, 5-chloro-3-cyano-4,6-dimethyl-N-(quinolin-8-yl)pyridine-2-sulfonamide]
- IC50: 200 to 500 nM

SMILES: O=S(=O)(Nc1cccc2cccnc12)c1ccc(-c2cnco2)nc1 [Compound 172, 6-(oxazol-5-yl)-N-(quinolin-8-yl)pyridine-3-sulfonamide]
- IC50: 500 to 5000 nM

SMILES: O=S(=O)(Nc1cccc2cccnc12)c1cccc(F)c1 [Compound 283, 3-fluoro-N-(quinolin-8-yl)benzene-sulfonamide]
- IC50: 200 to 500 nM

SMILES: Cc1cc(NS(=O)(=O)c2nccn2C)c2ncccc2c1 [Compound 129, 1-methyl-N-(6-methyl-quinolin-8-yl)-1H-imidazole-2-sulfonamide]
- IC50: < 200 nM

SMILES: O=S(=O)(Nc1ccc(N2CCOCC2)c2cccnc12)c1cn[nH]c1 [Compound 62, N-(5-morph-olinoquin-olin-8-yl)-1H-pyrazole-4-sulfonamide]
- IC50: 500 to 5000 nM

SMILES: COc1cnc(S(=O)(=O)Nc2c(Cl)ccc3cccnc23)cn1 [Compound 78, N-(7-chloro-quinolin-8-yl)-5-meth-oxypyrazine-2-sulfonamide]
- IC50: 500 to 5000 nM

SMILES: Cn1nccc1S(=O)(=O)Nc1cccc2cccnc12 [Compound 252, 1-methyl-N-(quinolin-8-yl)-1H-pyrazole-5-sulfonamide]
- IC50: 500 to 5000 nM

SMILES: Cc1cccnc1S(=O)(=O)Nc1cccc2c1NCCC2 [Compound 56, 3-methyl-N-(1,2,3,4-tetra-hydroquinolin-8-yl)pyridine-2-sulfonamide]
- IC50: 500 to 5000 nM

SMILES: O=S(=O)(Nc1cccc2cccnc12)c1nnc2ccccn12 [Compound 201, N-(quinolin-8-yl)-[1,2,4]triazolo [4,3-a]pyridine-3-sulfonamide]
- IC50: 500 to 5000 nM

SMILES: Cc1ccc(S(=O)(=O)Nc2cccc3cccnc23)cc1 [Compound 284, 4-methyl-N-(quinolin-8-yl)benzene-sulfonamide]
- IC50: < 200 nM

SMILES: Cc1ccc(S(=O)(=O)Nc2cc(C(F)(F)F)cc3cccnc23)cc1 [Compound 138, 4-methyl-N-(6-(trifluoro-methyl)quin-olin-8-yl)-benzene-sulfonamide]
- IC50: 200 to 500 nM

SMILES: NC(=O)c1cccc(S(=O)(=O)Nc2ccc(N3CCOCC3)c3cccnc23)c1 [Compound 92, 3-(N-(5-morpholino-quin-olin-8-yl)sulfamoyl)-benzamide]
- IC50: 500 to 5000 nM

SMILES: Cc1nc(C(F)(F)F)ccc1S(=O)(=O)Nc1cccc2cccnc12 [Compound 173, 2-methyl-N-(quinolin-8-yl)-6-(trifluoromethyl) pyridine-3-sulfonamide]
- IC50: 500 to 5000 nM

SMILES: O=S(=O)(Nc1c(Cl)cc(N2CCOCC2)c2cccnc12)c1ncccc1C1CC1 [Compound 139, N-(7-chloro-5-morpholino-quinolin-8-yl)-3-cyclopropyl-pyridine-2-sulfonamide]
- IC50: < 200 nM

SMILES: Cc1cccnc1S(=O)(=O)Nc1cccc2ccc(-c3ccccc3)nc12 [Compound 22, 3-methyl-N-(2-phenyl-quinolin-8-yl)pyridine-2-sulfonamide]
- IC50: 500 to 5000 nM

SMILES: COc1cccnc1S(=O)(=O)Nc1cccc2cccnc12 [Compound 223, 3-methoxy-N-(quinolin-8-yl)pyridine-2-sulfonamide]
- IC50: < 200 nM

SMILES: Cc1ccc(S(=O)(=O)Nc2cccc3cccnc23)cc1C [Compound 273, 3,4-dimethyl-N-(quinolin-8-yl)benzenesulfon-amide]
- IC50: < 200 nM

SMILES: O=S(=O)(Nc1cccc2cccnc12)c1ccncn1 [Compound 199, N-(quinolin-8-yl)pyrimidine-4-sulfonamide]
- IC50: 500 to 5000 nM

SMILES: Cc1cc(NS(=O)(=O)c2ccccn2)c2ncccc2c1 [Compound 132, N-(6-methyl-quinolin-8-yl)pyridine-2-sulfonamide]
- IC50: 200 to 500 nM

SMILES: CC(C)n1ccnc1S(=O)(=O)Nc1cccc2cccnc12 [Compound 241, 1-isopropyl-N-(quinolin-8-yl)-1H-imidazole-2-sulfonamide]
- IC50: < 200 nM
